Columns and labels:
Assay in all cases: modified ELISA on progesterone-coated plate, Scatchard plot
rSCY2 = target: T1, rSCY2 (Scylla paramamosain, UniProt A0AAW0UAN3); assay type: binding; conditions: protein 0-24 uM on plate coated with 3 ug progesterone; antibody detection; rSCY2 alone
T1 construct: gene SCY2; recombinant His-tagged SCY2, purified

rScyreprocin = target: T2, rScyreprocin (Scylla paramamosain, UniProt A0A7D0GB18); assay type: binding
T2 construct: recombinant His-tagged scyreprocin, purified
T2 sequence (A0A7D0GB18 1-84): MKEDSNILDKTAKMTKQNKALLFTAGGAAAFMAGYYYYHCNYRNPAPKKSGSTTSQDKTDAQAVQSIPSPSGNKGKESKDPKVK

[1] = target: T3, rScyreprocin/rSCY2 mixture; assay type: binding, Scylla paramamosain; conditions: protein mixture 0-24 uM on plate coated with 3 ug progesterone; antibody detection; both proteins present
T3 construct: gene scyreprocin; complex not isolated, stoichiometry unknown

T1 sequence (A0AAW0UAN3 25-124 limits assumed): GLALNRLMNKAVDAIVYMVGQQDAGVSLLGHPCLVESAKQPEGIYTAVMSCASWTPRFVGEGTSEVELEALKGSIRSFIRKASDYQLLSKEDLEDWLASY

Q: `CC(=O)[C@H]1CC[C@H]2[C@@H]3CCC4=CC(=O)CC[C@]4(C)[C@H]3CC[C@]12C` [progesterone] was tested. Which Kd (rSCY2) did it give?
A: 0.143 µM

Q: What about the Kd (rScyreprocin) of the same compound?
A: 0.259 µM

Q: And the Kd [1]?
A: 0.0722 µM

Reference: PMC8952799, “Two Male-Specific Antimicrobial Peptides SCY2 and Scyreprocin as Crucial Molecules Participated in the Sperm Acrosome Reaction of Mud Crab Scylla paramamosain” (International Journal of Molecular Sciences, 2022)
